Measured values: ChEMBL document CHEMBL5537150, “Synthesis of melampomagnolide B derivatives as potential anti-Triple Negative Breast Cancer agents” (Eur J Med Chem, 2024)
pIC50: −log10 of the molar value. Active and inactive are the calls of the source. The calls are words filed in the database; no cut-off is given here.

Experiments:
[1] = system: MDA-MB-231; test: Antiproliferative activity against human MDA-MB-231 cells assessed as inhibition of cell growth incubated for 72 hrs by MTT assay; format: functional, cell-based; details: MDA-MB-231, 72 h
[2] = system: MDA-MB-468; test: Antiproliferative activity against human MDA-MB-468 cells assessed as inhibition of cell growth incubated for 72 hrs by MTT assay; format: functional, cell-based; details: MDA-MB-468, 72 h
[3] = system: MCF7; test: Antiproliferative activity against human MCF7 cells assessed as inhibition of cell growth incubated for 72 hrs by MTT assay; format: functional, cell-based; details: MCF7, 72 h
[4] = system: 4T1; test: Antiproliferative activity against mouse 4T1 cells assessed as inhibition of cell growth incubated for 72 hrs by MTT assay; format: functional, cell-based; details: 4T1, 72 h
[5] = system: MDA-MB-231; test: Antimigratory activity in human MDA-MB-231 cells assessed as reduction in number of migrated cells incubated for 48 hrs by crystal violet staining based transwell assay; format: functional, cell-based
[6] = system: MDA-MB-468; test: Antimigratory activity in human MDA-MB-468 cells assessed as downregulation of Vimentin protein expression incubated for 48 hrs by Western blotting analysis; format: functional, cell-based
[7] = system: MDA-MB-468; test: Antimigratory activity in human MDA-MB-468 cells assessed as downregulation of N-cadherin protein expression incubated for 48 hrs by Western blotting analysis; format: functional, cell-based
[8] = system: MDA-MB-231; test: Antimigratory activity in human MDA-MB-231 cells assessed as downregulation of N-cadherin protein expression incubated for 48 hrs by Western blotting analysis; format: functional, cell-based
[9] = system: MDA-MB-231; test: Antimigratory activity in human MDA-MB-231 cells assessed as downregulation of Vimentin protein expression incubated for 48 hrs by Western blotting analysis; format: functional, cell-based
[10] = system: MDA-MB-468; test: Induction of apoptosis in human MDA-MB-468 cells at 0.2 uM incubated for 48 hrs by annexin-V-APC/PI staining based flow cytometric analysis (reference value: 5.38 +/- 1.63 %); format: functional
[11] = system: MDA-MB-468; test: Induction of apoptosis in human MDA-MB-468 cells at 0.5 uM incubated for 48 hrs by annexin-V-APC/PI staining based flow cytometric analysis (reference value: 5.38 +/- 1.63 %); format: functional
[12] = system: MDA-MB-468; test: Induction of apoptosis in human MDA-MB-468 cells at 1 uM incubated for 48 hrs by annexin-V-APC/PI staining based flow cytometric analysis (reference value: 5.38 +/- 1.63 %); format: functional
[13] = system: MDA-MB-468; test: Induction of apoptosis in human MDA-MB-468 cells at 2 uM incubated for 48 hrs by annexin-V-APC/PI staining based flow cytometric analysis (reference value: 5.38 +/- 1.63 %); format: functional
[14] = system: MDA-MB-468; test: Induction of apoptosis in human MDA-MB-468 cells at 5 uM incubated for 48 hrs by annexin-V-APC/PI staining based flow cytometric analysis (reference value: 5.38 +/- 1.63 %); format: functional
[15] = system: MDA-MB-231; test: Induction of apoptosis in human MDA-MB-231 cells at 0.2 uM incubated for 48 hrs by annexin-V-APC/PI staining based flow cytometric analysis (reference value: 1.81 +/- 0.47 %); format: functional
[16] = system: MDA-MB-231; test: Induction of apoptosis in human MDA-MB-231 cells at 1 uM incubated for 48 hrs by annexin-V-APC/PI staining based flow cytometric analysis (reference value: 1.81 +/- 0.47 %); format: functional
[17] = system: MDA-MB-231; test: Induction of apoptosis in human MDA-MB-231 cells at 2 uM incubated for 48 hrs by annexin-V-APC/PI staining based flow cytometric analysis (reference value: 1.81 +/- 0.47 %); format: functional
[18] = system: MDA-MB-231; test: Induction of apoptosis in human MDA-MB-231 cells at 5 uM incubated for 48 hrs by annexin-V-APC/PI staining based flow cytometric analysis (reference value: 1.81 +/- 0.47 %); format: functional
[19] = system: MDA-MB-231; test: Induction of apoptosis in human MDA-MB-231 cells assessed as downregulation of BCL-2 protein expression incubated for 48 hrs by Western blotting analysis; format: functional, cell-based
[20] = system: MDA-MB-231; test: Induction of apoptosis in human MDA-MB-231 cells assessed as downregulation of BCL-xl protein expression incubated for 48 hrs by Western blotting analysis; format: functional, cell-based
[21] = system: MDA-MB-468; test: Induction of cell cycle arrest in human MDA-MB-468 cells assessed as increase in accumulation of cells at S phase at 0.2 to 2 uM incubated for 48 hrs by RNase/PI staining based flow cytometric analysis; format: functional; details: dose 0.2-2 µM
[22] = system: MDA-MB-231; test: Induction of cell cycle arrest in human MDA-MB-231 cells assessed as decrease in accumulation of cells at G1 phase at 0.2 to 2 uM incubated for 48 hrs by RNase/PI staining based flow cytometric analysis; format: functional; details: dose 0.2-2 µM
[23] = system: MDA-MB-231; test: Induction of cell cycle arrest in human MDA-MB-231 cells assessed as increase in accumulation of cells at S phase at 0.2 to 2 uM incubated for 48 hrs by RNase/PI staining based flow cytometric analysis; format: functional; details: dose 0.2-2 µM
[24] = system: MDA-MB-231; test: Induction of cell cycle arrest in human MDA-MB-231 cells assessed as increase in accumulation of cells at G2/M phase at 0.2 to 2 uM incubated for 48 hrs by RNase/PI staining based flow cytometric analysis; format: functional; details: dose 0.2-2 µM
[25] = system: MDA-MB-468; test: Induction of cell cycle arrest in human MDA-MB-468 cells assessed as downregulation of Cdc2 protein expression incubated for 48 hrs by Western blotting analysis; format: functional, cell-based
[26] = system: MDA-MB-468; test: Induction of cell cycle arrest in human MDA-MB-468 cells assessed as downregulation of Cyclin B1 protein expression incubated for 48 hrs by Western blotting analysis; format: functional, cell-based
[27] = system: MDA-MB-468; test: Induction of cell cycle arrest in human MDA-MB-468 cells assessed as downregulation of Cyclin E1 protein expression incubated for 48 hrs by Western blotting analysis; format: functional, cell-based
[28] = system: MDA-MB-231; test: Induction of cell cycle arrest in human MDA-MB-231 cells assessed as downregulation of Cdc25c protein expression incubated for 48 hrs by Western blotting analysis; format: functional, cell-based
[29] = system: MDA-MB-231; test: Inhibition of NF-kappaB signalling pathway in human MDA-MB-231 cells assessed as downregulation of p65 phosphorylation at 0.5 to 2 uM incubated for 48 hrs by Western blotting analysis; format: cell-based; details: dose 0.5-2 µM
[30] = system: MDA-MB-231; test: Inhibition of NF-kappaB signalling pathway in human MDA-MB-231 cells assessed as downregulation of IkappaBalpha phosphorylation at 0.5 to 2 uM incubated for 48 hrs by Western blotting analysis; format: cell-based; details: dose 0.5-2 µM
[31] = system: MDA-MB-231; test: Inhibition of NF-kappaB signalling pathway in human MDA-MB-231 cells assessed as effect on total p65 protein level at 0.2 to 2 uM incubated for 48 hrs by Western blotting analysis; format: cell-based; details: dose 0.2-2 µM
[32] = system: MDA-MB-231; test: Inhibition of NF-kappaB signalling pathway in human MDA-MB-231 cells assessed as upregulation of cytoplasmic p65 expression at 0.2 to 2 uM incubated for 48 hrs by Western blotting analysis; format: cell-based; details: dose 0.2-2 µM
[33] = system: 4T1; test: Antitumor activity against mouse 4T1 cells implanted in Balb/c mouse assessed as inhibition of tumor volume at 10 mg/kg,ip administrated every two days for 20 days; format: functional, organism-based; details: time 20.0 day
[34] = system: 4T1; test: Antitumor activity against mouse 4T1 cells implanted in Balb/c mouse assessed as inhibition of tumor weight at 10 mg/kg,ip administrated every two days for 20 days; format: functional, organism-based; details: time 20.0 day
[35] = system: 4T1; test: Antitumor activity against mouse 4T1 cells implanted in Balb/c mouse assessed as decrease in spleen weight at 10 mg/kg,ip administrated every two days for 20 days; format: functional, organism-based; details: time 20.0 day

Q: How did the pIC50 [1] turn out when `C=C1C(=O)O[C@H]2[C@H]1CC/C(COc1ccc(-c3cc(=S)ss3)cc1)=C\CC[C@@]1(C)O[C@@H]21` was run?
A: The pIC50 was 6.05.

Q: And the pIC50 [2]?
A: The pIC50 was 5.82.

Q: And the pIC50 [3]?
A: Its pIC50 is 5.42.

Q: And the pIC50 [4]?
A: Its pIC50 is 5.93.

Q: What about the Activity [5] of the same compound?
A: The Activity was “Dose-Dependent Effect”.

Q: What about the Activity [6] of the same compound?
A: The Activity was “Dose-Dependent Effect”.

Q: And the Activity [7]?
A: Its Activity is “Dose-Dependent Effect”.

Q: What about the Activity [8] of the same compound?
A: The Activity was “Dose-Dependent Effect”.

Q: And the Activity [9]?
A: The Activity was “Dose-Dependent Effect”.

Q: And the Activity [10]?
A: The Activity was 4.32%.

Q: What about the Activity [11] of the same compound?
A: The Activity was 5.77%.

Q: And the Activity [12]?
A: The Activity was 6.4%.

Q: What about the Activity [13] of the same compound?
A: Its Activity is 8.64%.

Q: What about the Activity [14] of the same compound?
A: Its Activity is 43.96%.

Q: And the Activity [15]?
A: Its Activity is 2.01%.

Q: What about the Activity [16] of the same compound?
A: Its Activity is 11.6%.

Q: What about the Activity [17] of the same compound?
A: Its Activity is 48.24%.

Q: And the Activity [18]?
A: The Activity was 71.28%.

Q: What about the Activity [19] of the same compound?
A: Its Activity is “Dose-Dependent Effect”.

Q: And the Activity [20]?
A: The Activity was “Dose-Dependent Effect”.

Q: And the Activity [21]?
A: Its Activity is “Active”.

Q: What about the Activity [22] of the same compound?
A: Its Activity is “Active”.

Q: And the Activity [23]?
A: Its Activity is “Active”.

Q: What about the Activity [24] of the same compound?
A: The Activity was “Active”.

Q: And the Activity [25]?
A: The Activity was “Dose-Dependent Effect”.

Q: What about the Activity [26] of the same compound?
A: Its Activity is “Dose-Dependent Effect”.

Q: And the Activity [27]?
A: Its Activity is “Dose-Dependent Effect”.

Q: And the Activity [28]?
A: Its Activity is “Dose-Dependent Effect”.

Q: What about the inhibition [29] of the same compound?
A: The inhibition was “Active”.

Q: What about the inhibition [30] of the same compound?
A: Its inhibition is “Active”.

Q: What about the inhibition [31] of the same compound?
A: Its inhibition is “inactive”.

Q: And the inhibition [32]?
A: Its inhibition is “Active”.

Q: What about the Activity [33] of the same compound?
A: The Activity was “Active”.

Q: And the Activity [34]?
A: The Activity was “Active”.

Q: And the Activity [35]?
A: The Activity was “Active”.
